Test results from the Deep4Chem optical property database.
One block for each molecule: values may come before it.

Test: solvent given as SMILES

emission maximum (in ClC(Cl)Cl): 423 nm
Compound: CCCCCCCCCCCCc1sc(CCCCCC)c2c3cc(CCCCCC)sc3c3sc(CCCCCC)cc3c12

emission maximum (in CC#N): 418 nm
Compound: CCOC(=O)c1c2c3c(ccc(OC)c3c3cc4c(cc13)[Si](C)(C)O[Si]4(C)C)N(C)C2=O

Compound: Cc1cc(-c2ccccc2)nc2c1ccc1nc(-c3ccccc3)cn12
emission maximum (in CC#N): 458 nm
emission maximum (in CCCCOC(C)=O): 449 nm
emission maximum (in CCOC(C)=O): 454 nm
emission maximum (in CO): 450 nm
emission maximum (in ClC(Cl)Cl): 448 nm
emission maximum (in ClCCl): 450 nm
emission maximum (in c1ccccc1): 451 nm

emission maximum (in C1CCCCC1): 328 nm
emission maximum (in CC#N): 348 nm
emission maximum (in CO): 349 nm
emission maximum (in O): 350 nm
Compound: CCOC(=O)CCOc1ccc(C(c2c(C)[nH]c3ccccc23)c2c(C)[nH]c3ccccc23)cc1

Compound: Nc1ccc2c(c1)C(=O)NC2=O
emission maximum (in C1CCOC1): 445 nm
emission maximum (in C1COCCO1): 435 nm
emission maximum (in CC#N): 458 nm
emission maximum (in CC(C)(C)O): 501 nm
emission maximum (in CC(C)=O): 457 nm
emission maximum (in CC(C)O): 505 nm
emission maximum (in CCO): 520 nm
emission maximum (in CCOCC): 425 nm
emission maximum (in CN(C)C=O): 470 nm
emission maximum (in CO): 518 nm
emission maximum (in O): 540 nm

Compound: N#Cc1c(-c2ccccc2)cc(-c2ccccc2)[nH]c1=S
emission maximum (in C1CCCCC1): 510 nm
emission maximum (in C1COCCO1): 512 nm
emission maximum (in CC#N): 495 nm
emission maximum (in CCCCO): 506 nm
emission maximum (in CCCO): 493 nm
emission maximum (in CCO): 465 nm
emission maximum (in CCOC(C)=O): 502 nm
emission maximum (in CCOCC): 518 nm
emission maximum (in CN(C)C=O): 505 nm
emission maximum (in ClC(Cl)(Cl)Cl): 510 nm

emission maximum (in ClCCl): 457 nm
emission maximum (in c1cc(-n2c3ccccc3c3ccccc32)cc(-n2c3ccccc3c3ccccc32)c1): 438 nm
Compound: c1ccc(N(c2ccccc2)c2ccc(-c3ccc4c(c3)C3(c5ccccc5Sc5ccccc53)c3cc(-c5ccc(N(c6ccccc6)c6ccccc6)cc5)ccc3-4)cc2)cc1

Compound: FC(F)(F)c1ccc(/C=C/c2nc(/C=C/c3ccc(N(c4ccccc4)c4ccccc4)cc3)cc(/C=C/c3ccc(N(c4ccccc4)c4ccccc4)cc3)n2)cc1
emission maximum (in C1CCOC1): 526 nm
emission maximum (in CC#N): 600 nm
emission maximum (in CC(C)=O): 567 nm
emission maximum (in CCCCCCC): 467 nm
emission maximum (in CS(C)=O): 599 nm
emission maximum (in Cc1ccccc1): 486 nm
emission maximum (in ClCCl): 554 nm

Compound: c1ccc(N(c2ccccc2)c2ccc3c4cccc5c(N(c6ccccc6)c6ccccc6)ccc(c6cccc2c63)c54)cc1
emission maximum (in C1CCCCC1): 531 nm
emission maximum (in C1CCOC1): 545 nm
emission maximum (in CC#N): 548 nm
emission maximum (in Cc1ccccc1): 541 nm
emission maximum (in ClCCl): 547 nm

emission maximum (in ClC(Cl)Cl): 582 nm
Compound: Cc1ccccc1CN(Cc1ccccc1C)c1nc(C#N)c(N(Cc2ccccc2C)Cc2ccccc2C)nc1C#N

emission maximum (in C1CCCCC1): 340 nm
emission maximum (in CC#N): 343 nm
emission maximum (in CCO): 344 nm
emission maximum (in CCOC(C)=O): 342 nm
Compound: COC(=O)c1nc(-c2cccc3ccccc23)oc1C

Compound: CCn1c2ccccc2c2cc(C#Cc3cc(C#Cc4ccc5c(c4)c4ccccc4n5CC)nc(SC)n3)ccc21
emission maximum (in C1CCOC1): 449 nm
emission maximum (in CCOC(C)=O): 446 nm
emission maximum (in CN(C)C=O): 502 nm
emission maximum (in Cc1ccccc1): 416 nm
emission maximum (in ClCCl): 471 nm

emission maximum (in ClC(Cl)Cl): 517.73 nm
Compound: CC1=CC(C)=[N+]2C1=C(c1ccc(I)cc1)c1c(C)cc(C)n1[B-]2(OC(C)C)OC(C)C

emission maximum (in ClCCl): 566 nm
Compound: COc1ccc2cc(/C=C/C3=CC(c4ccccc4)=[O+][B-](F)(F)O3)ccc2c1

emission maximum (in ClC(Cl)Cl): 525 nm
Compound: N#CC1=CC(c2ccccc2)=CC(C#N)=P1(c1ccccc1)c1ccccc1

emission maximum (in C1COCCO1): 486 nm
emission maximum (in CC#N): 526 nm
emission maximum (in CO): 522 nm
Compound: N#Cc1ccc(/C=C/C=C/C2=NC3C(=O)NC(N)=NC3N2[C@H]2C[C@H](O)[C@@H](CO)O2)cc1 (stereo not given in full)

emission maximum (in ClC(Cl)Cl): 495 nm
Compound: CCCCCCN1C(=O)c2cccc3c(-c4ccc(-c5ccc6c7c(cccc57)C(=O)N(CCCCCC)C6=O)s4)ccc(c23)C1=O

emission maximum (in ClCCl): 626 nm
Compound: CC(C)c1cccc(C(C)C)c1N1C(=O)c2ccc3c4c(-c5ccc(C(=O)O)cc5)c5ccc6c7c(cc8c9cc(C(=O)O)ccc9c(c9ccc(c2c39)C1=O)c4c8c57)C(=O)N(c1c(C(C)C)cccc1C(C)C)C6=O

emission maximum (in C1CCOC1): 406 nm
Compound: CCCCC1(CCCC)c2cc(C#Cc3ccc(C=C4c5ccccc5CCc5ccccc54)cc3)ccc2-c2ccc(C#Cc3ccc(C=C4c5ccccc5CCc5ccccc54)cc3)cc21

emission maximum (in CC#N): 579 nm
emission maximum (in CCO): 571 nm
emission maximum (in CN(C)C=O): 588 nm
emission maximum (in O): 580 nm
Compound: CCN(CC)c1ccc2c(-c3ccccc3C(=O)[O-])c3ccc(=[N+](CC)CC)cc-3oc2c1

emission maximum (in CC#N): 472 nm
Compound: CN(C)c1ccc(-c2nc3nccnc3n2-c2ccc(N(C)C)cc2)cc1

emission maximum (in ClC(Cl)Cl): 347 nm
Compound: c1cc2cc(c1)c1ccc3c(c1)c1cc(ccc1[C@]14OCCO[C@]31OCCO4)c1ccc3c(c1)c1cc(ccc1[C@]14OCCO[C@]31OCCO4)c1cccc2c1

emission maximum (in CC#N): 572 nm
Compound: C[n+]1ccn(CCCCc2ccc3c(c2)c2ccccc2n3-c2cc(C#N)c(C#N)cc2-n2c3ccccc3c3cc(CCCCn4cc[n+](C)c4)ccc32)c1

emission maximum (in ClCCl): 682 nm
Compound: COC(=O)CCC1=CC(C#Cc2ccc(OC)cc2)=[N+]2C1=Cc1c(CCC(=O)OC)cc(C#Cc3ccc(OC)cc3)n1[B-]2(F)F

emission maximum (in CCO): 652 nm
emission maximum (in O): 652 nm
Compound: CC/[NH+]=c1\cc2oc3cc(NCCOC(=O)C(NC(=O)OC(C)(C)C)C(C)C)c4ccccc4c3nc-2cc1C (stereo not given)

emission maximum (in ClC(Cl)Cl): 420 nm
Compound: N#Cc1ccc2cc(C#N)c3ccc4ccccc4c3c2c1

Compound: CCC1=C(C)C2=Cc3c4ccccc4c4n3[B-](C)(Oc3ccccc3-4)[N+]2=C1C (stereo not given)
emission maximum (in CC#N): 630 nm
emission maximum (in CCCCCC): 632 nm
emission maximum (in Cc1ccccc1): 636 nm
emission maximum (in ClCCl): 635 nm

emission maximum (in ClCCl): 440 nm
Compound: FC(F)(F)c1c(-n2c3ccccc3c3ccccc32)c(-n2c3ccccc3c3ccccc32)cc(-n2c3ccccc3c3ccccc32)c1-n1c2ccccc2c2ccccc21

emission maximum (in CC#N): 420 nm
Compound: CCNc1cc2oc(=O)cc(C)c2cc1C

Compound: CCCCC(CC)Cn1c2ccc(C(=C(C#N)C#N)c3ccccc3)cc2c2c(-c3ccc(Br)cc3)c3c(c(-c4ccc(Br)cc4)c21)c1cc(C(=C(C#N)C#N)c2ccccc2)ccc1n3CC(CC)CCCC (stereo not given)
emission maximum (in C1CCOC1): 584 nm
emission maximum (in CC#N): 536 nm
emission maximum (in CCO): 576 nm
emission maximum (in CCOC(C)=O): 582 nm
emission maximum (in CN(C)C=O): 535 nm
emission maximum (in Cc1ccccc1): 540 nm
emission maximum (in ClCCl): 597 nm
emission maximum (in c1ccccc1): 543 nm

Compound: N#Cc1c(-n2c3ccccc3c3ccccc32)c(C#N)c(-n2c3ccccc3c3ccccc32)c(-n2c3ccccc3c3ccccc32)c1-n1c2ccccc2c2ccccc21
emission maximum (in Cc1ccccc1): 507 nm

Compound: CC(=O)Nc1ccccc1C(=O)OC1CC(C)CCC1C(C)C (stereo not given)
emission maximum (in C1CCCCC1): 363 nm
emission maximum (in CC#N): 369 nm
emission maximum (in CCO): 370 nm
emission maximum (in Cc1ccccc1): 368 nm

emission maximum (in O): 397 nm
Compound: CCn1c(-c2ccc(-c3ccc(-c4ccc(-c5n(CC)c6ccccc6[n+]5CC)cc4)cc3)cc2)[n+](CC)c2ccccc21

emission maximum (in ClCCl): 461 nm
Compound: CCN(CC)c1ccc2c(c1)oc(=O)c1c(C)nc3c(c(-c4ccccc4)nn3C)c12

emission maximum (in C1CCCCC1): 636 nm
emission maximum (in CCOC(C)=O): 683 nm
Compound: CC1=[N+]2C(=Cc3ccc(C)n3[B-]2(F)F)C=C1c1cc2n(c1)[B-](F)(F)[N+]1=CC=CC1=C2c1c(C)cc(C)cc1C

emission maximum (in C1CCOC1): 404 nm
Compound: COC(=O)c1cc2c(cc3ccc4cccc5ccc2c3c45)[nH]1

emission maximum (in CS(C)=O): 449 nm
emission maximum (in ClCCl): 440 nm
Compound: CC(C)(C)OC(=O)COc1ccc2c(c1)oc(=O)c1c(=O)oc3ccccc3c12

emission maximum (in ClC(Cl)Cl): 463.2 nm
Compound: F[B-]1(F)OC(c2ccccc2)=Cc2c3ccccc3cc[n+]21

emission maximum (in ClCCl): 414 nm
Compound: O=C1c2cc3ccccc3cc2C2=Nc3cccc[n+]3[B-](F)(F)N12

Compound: COc1ccc2c3ccc(OC)cc3n(-c3ccc(-c4nnc(-c5c(C(C)C)cc(C(C)C)cc5C(C)C)o4)cc3)c2c1
emission maximum (in Cc1ccccc1): 437 nm

emission maximum (in ClCCl): 506 nm
Compound: CCN(CC)c1ccc2c(c1)oc(=O)c1cc3c(-c4ccccc4)nn(C)c3nc12

Compound: N#Cc1cccc(C#N)c1-n1c2ccccc2c2cc(-c3ccc4c(c3)c3ccccc3n4-c3c(C#N)cccc3C#N)ccc21
emission maximum (in Cc1ccccc1): 488 nm
emission maximum (in O=P(c1ccccc1)(c1ccccc1)c1ccccc1Oc1ccccc1P(=O)(c1ccccc1)c1ccccc1): 488 nm

emission maximum (in CS(C)=O): 567 nm
Compound: C[N+]1=C(/C=C/C=C2/N(CCCc3ccccc3)c3ccccc3C2(C)C)C(C)(C)c2ccccc21

Compound: O=P1(c2ccccc2)C(c2cc(C(F)(F)F)cc(C(F)(F)F)c2)=Cc2c3ccc4cccc5ccc(c6cc(-c7ccccc7)n1c26)c3c45 (stereo not given)
emission maximum (in C1CCCCC1): 501 nm
emission maximum (in C1CCOC1): 521 nm
emission maximum (in C1COCCO1): 514 nm
emission maximum (in CC#N): 531 nm
emission maximum (in CC(C)=O): 526 nm
emission maximum (in CO): 524 nm
emission maximum (in Cc1ccccc1): 514 nm
emission maximum (in ClC(Cl)Cl): 514 nm
emission maximum (in ClCCl): 521 nm

emission maximum (in C1CCOC1): 601 nm
Compound: F[B-]1(F)n2c(-c3ccccc3)cc(-c3ccccc3)c2C=C2C(c3ccccc3)=CC(c3ccccc3)=[N+]21

emission maximum (in ClC(Cl)Cl): 637 nm
Compound: CCCN1c2ccccc2Sc2cc(/C=C\c3cc(=O)oc4ccc(C)cc34)ccc21

emission maximum (in C1CCOC1): 439 nm
Compound: N#Cc1ccc(/C=C/C(F)(F)F)c(N)c1

emission maximum (in ClC(Cl)Cl): 498 nm
Compound: C(#Cc1cccs1)C(C#Cc1cccs1)=Cc1ccc(C=C(C#Cc2cccs2)C#Cc2cccs2)cc1

Compound: CC1(C)c2cc(C#N)ccc2-c2ccc(N3c4ccccc4Oc4ccccc43)cc21
emission maximum (in C1CCCCC1): 433 nm
emission maximum (in C1CCOC1): 550 nm
emission maximum (in CC#N): 620 nm
emission maximum (in Cc1ccccc1): 487 nm
emission maximum (in ClC(Cl)Cl): 530 nm

Compound: CC1CC=C(c2ccc(-c3cccs3)s2)CC1 (stereo not given)
emission maximum (in C1CCOC1): 412 nm
emission maximum (in CC#N): 404 nm
emission maximum (in CCCCCC): 408 nm
emission maximum (in CCO): 411 nm
emission maximum (in OCCOCCO): 414 nm
emission maximum (in c1ccncc1): 417 nm
